From patent US6352958B1, “Cycloimido-substituted benzofused heterocyclic herbicides” (FMC Corporation, priority 1997, dated 2002)

What was measured:
Assay type in all cases: in vivo
[1] = system: soybean (Glycine max var. Winchester); assay: Preemergence herbicidal activity, soybean; conditions: Rate of Application 0.3 Kg/Ha, examined after 12-17 days
[2] = system: wheat (Triticum aestivum var. Lew); assay: Preemergence herbicidal activity, wheat; conditions: Rate of Application 0.3 Kg/Ha, examined after 12-17 days
[3] = system: field corn (Zea mays var. Pioneer 3732); assay: Preemergence herbicidal activity, corn; conditions: Rate of Application 0.3 Kg/Ha, examined after 12-17 days
[4] = system: velvetleaf (Abutilon theophrasti); assay: Preemergence herbicidal activity, velvetleaf; conditions: Rate of Application 0.3 Kg/Ha, examined after 12-17 days
[5] = system: morningglory (Ipomea lacunosa or Ipomea hederacea); assay: Preemergence herbicidal activity, morningglory; conditions: Rate of Application 0.3 Kg/Ha, examined after 12-17 days
[6] = system: common chickweed (Stellaria media); assay: Preemergence herbicidal activity, chickweed; conditions: Rate of Application 0.3 Kg/Ha, examined after 12-17 days
[7] = system: common cocklebur (Xanthium strumarium L.); assay: Preemergence herbicidal activity, cocklebur; conditions: Rate of Application 0.3 Kg/Ha, examined after 12-17 days
[8] = system: green foxtail (Setaria viridis); assay: Preemergence herbicidal activity, green foxtail; conditions: Rate of Application 0.3 Kg/Ha, examined after 12-17 days
[9] = system: Johnsongrass (Sorghum halepense); assay: Preemergence herbicidal activity, johnsongrass; conditions: Rate of Application 0.3 Kg/Ha, examined after 12-17 days
[10] = system: soybean (Glycine max var. Winchester); assay: Postemergence herbicidal activity, soybean; conditions: rate of application 0.3 Kg/Ha, rated after 12-17 days
[11] = system: wheat (Triticum aestivum var. Lew); assay: Postemergence herbicidal activity, wheat; conditions: rate of application 0.3 Kg/Ha, rated after 12-17 days
[12] = system: field corn (Zea mays var. Pioneer 3732); assay: Postemergence herbicidal activity, corn; conditions: rate of application 0.3 Kg/Ha, rated after 12-17 days
[13] = system: velvetleaf (Abutilon theophrasti); assay: Postemergence herbicidal activity, velvetleaf; conditions: rate of application 0.3 Kg/Ha, rated after 12-17 days
[14] = system: morningglory (Ipomea lacunosa or Ipomea hederacea); assay: Postemergence herbicidal activity, morningglory; conditions: rate of application 0.3 Kg/Ha, rated after 12-17 days
[15] = system: common chickweed (Stellaria media); assay: Postemergence herbicidal activity, chickweed; conditions: rate of application 0.3 Kg/Ha, rated after 12-17 days
[16] = system: common cocklebur (Xanthium strumarium L.); assay: Postemergence herbicidal activity, cocklebur; conditions: rate of application 0.3 Kg/Ha, rated after 12-17 days
[17] = system: blackgrass (Aloepecurus myosuroides); assay: Postemergence herbicidal activity, blackgrass; conditions: rate of application 0.3 Kg/Ha, rated after 12-17 days
[18] = system: green foxtail (Setaria viridis); assay: Postemergence herbicidal activity, green foxtail; conditions: rate of application 0.3 Kg/Ha, rated after 12-17 days
[19] = system: Johnsongrass (Sorghum halepense); assay: Postemergence herbicidal activity, johnsongrass; conditions: rate of application 0.3 Kg/Ha, rated after 12-17 days
[20] = system: blackgrass (Aloepecurus myosuroides); assay: Preemergence herbicidal activity, blackgrass; conditions: Rate of Application 0.3 Kg/Ha, examined after 12-17 days

CON=Cc1cc2c(Cl)ccc(-n3c(=O)cc(C(F)(F)F)n(C)c3=O)c2o1 [Compound 259]
PREEMERGENCE HERBICIDAL ACTIVITY (% CONTROL) SOY [1]: 70%
PREEMERGENCE HERBICIDAL ACTIVITY (% CONTROL) WHT [2]: 40%
PREEMERGENCE HERBICIDAL ACTIVITY (% CONTROL) CRN [3]: 80%
PREEMERGENCE HERBICIDAL ACTIVITY (% CONTROL) ABUTH [4]: 100%
PREEMERGENCE HERBICIDAL ACTIVITY (% CONTROL) IPOSS [5]: 70%
PREEMERGENCE HERBICIDAL ACTIVITY (% CONTROL) STEME [6]: 100%
PREEMERGENCE HERBICIDAL ACTIVITY (% CONTROL) XANPE [7]: 55%
PREEMERGENCE HERBICIDAL ACTIVITY (% CONTROL) SETVI [8]: 100%
PREEMERGENCE HERBICIDAL ACTIVITY (% CONTROL) SORHA [9]: 95%
Postemergence herbicidal activity (% control) SOY [10]: 80%
Postemergence herbicidal activity (% control) WHT [11]: 35%
Postemergence herbicidal activity (% control) CRN [12]: 75%
Postemergence herbicidal activity (% control) ABUTH [13]: 100%
Postemergence herbicidal activity (% control) IPOSS [14]: 90%
Postemergence herbicidal activity (% control) STEME [15]: 30%
Postemergence herbicidal activity (% control) XANPE [16]: 70%
Postemergence herbicidal activity (% control) ALOMY [17]: 55%
Postemergence herbicidal activity (% control) SETVI [18]: 80%
Postemergence herbicidal activity (% control) SORHA [19]: 70%

CC(=O)OCCc1cc2c(Cl)cc(F)c(-n3c(=O)cc(C(F)(F)F)n(C)c3=O)c2o1 [Compound 260]
PREEMERGENCE HERBICIDAL ACTIVITY (% CONTROL) SOY [1]: 100%
PREEMERGENCE HERBICIDAL ACTIVITY (% CONTROL) WHT [2]: 70%
PREEMERGENCE HERBICIDAL ACTIVITY (% CONTROL) CRN [3]: 80%
PREEMERGENCE HERBICIDAL ACTIVITY (% CONTROL) ABUTH [4]: 100%
PREEMERGENCE HERBICIDAL ACTIVITY (% CONTROL) IPOSS [5]: 100%
PREEMERGENCE HERBICIDAL ACTIVITY (% CONTROL) STEME [6]: 100%
PREEMERGENCE HERBICIDAL ACTIVITY (% CONTROL) XANPE [7]: 100%
PREEMERGENCE HERBICIDAL ACTIVITY (% CONTROL) ALOMY [20]: 95%
PREEMERGENCE HERBICIDAL ACTIVITY (% CONTROL) SETVI [8]: 100%
PREEMERGENCE HERBICIDAL ACTIVITY (% CONTROL) SORHA [9]: 100%
Postemergence herbicidal activity (% control) SOY [10]: 90%
Postemergence herbicidal activity (% control) WHT [11]: 80%
Postemergence herbicidal activity (% control) CRN [12]: 70%
Postemergence herbicidal activity (% control) ABUTH [13]: 100%
Postemergence herbicidal activity (% control) IPOSS [14]: 100%
Postemergence herbicidal activity (% control) XANPE [16]: 100%
Postemergence herbicidal activity (% control) ALOMY [17]: 90%
Postemergence herbicidal activity (% control) SETVI [18]: 100%
Postemergence herbicidal activity (% control) SORHA [19]: 90%

Cc1nc2c(-n3c(=O)cc(C(F)(F)F)n(C)c3=O)c(F)cc(Cl)c2[nH]1 [Compound 363]
PREEMERGENCE HERBICIDAL ACTIVITY (% CONTROL) SOY [1]: 100%
PREEMERGENCE HERBICIDAL ACTIVITY (% CONTROL) WHT [2]: 100%
PREEMERGENCE HERBICIDAL ACTIVITY (% CONTROL) CRN [3]: 100%
PREEMERGENCE HERBICIDAL ACTIVITY (% CONTROL) ABUTH [4]: 100%
PREEMERGENCE HERBICIDAL ACTIVITY (% CONTROL) IPOSS [5]: 100%
PREEMERGENCE HERBICIDAL ACTIVITY (% CONTROL) STEME [6]: 100%
PREEMERGENCE HERBICIDAL ACTIVITY (% CONTROL) XANPE [7]: 100%
PREEMERGENCE HERBICIDAL ACTIVITY (% CONTROL) ALOMY [20]: 100%
PREEMERGENCE HERBICIDAL ACTIVITY (% CONTROL) SETVI [8]: 100%
PREEMERGENCE HERBICIDAL ACTIVITY (% CONTROL) SORHA [9]: 100%
Postemergence herbicidal activity (% control) SOY [10]: 100%
Postemergence herbicidal activity (% control) WHT [11]: 100%
Postemergence herbicidal activity (% control) CRN [12]: 100%
Postemergence herbicidal activity (% control) ABUTH [13]: 100%
Postemergence herbicidal activity (% control) IPOSS [14]: 100%
Postemergence herbicidal activity (% control) XANPE [16]: 100%
Postemergence herbicidal activity (% control) ALOMY [17]: 100%
Postemergence herbicidal activity (% control) SETVI [18]: 100%
Postemergence herbicidal activity (% control) SORHA [19]: 100%

Cn1c(C(F)(F)F)cc(=O)n(-c2c(F)cc(Cl)c3nc(Cc4ccccc4)[nH]c23)c1=O [Compound 376]
PREEMERGENCE HERBICIDAL ACTIVITY (% CONTROL) SOY [1]: 50%
PREEMERGENCE HERBICIDAL ACTIVITY (% CONTROL) WHT [2]: 60%
PREEMERGENCE HERBICIDAL ACTIVITY (% CONTROL) CRN [3]: 80%
PREEMERGENCE HERBICIDAL ACTIVITY (% CONTROL) ABUTH [4]: 100%
PREEMERGENCE HERBICIDAL ACTIVITY (% CONTROL) IPOSS [5]: 100%
PREEMERGENCE HERBICIDAL ACTIVITY (% CONTROL) STEME [6]: 100%
PREEMERGENCE HERBICIDAL ACTIVITY (% CONTROL) XANPE [7]: 100%
PREEMERGENCE HERBICIDAL ACTIVITY (% CONTROL) ALOMY [20]: 100%
PREEMERGENCE HERBICIDAL ACTIVITY (% CONTROL) SETVI [8]: 100%
PREEMERGENCE HERBICIDAL ACTIVITY (% CONTROL) SORHA [9]: 70%
Postemergence herbicidal activity (% control) SOY [10]: 90%
Postemergence herbicidal activity (% control) WHT [11]: 50%
Postemergence herbicidal activity (% control) CRN [12]: 95%
Postemergence herbicidal activity (% control) ABUTH [13]: 100%
Postemergence herbicidal activity (% control) IPOSS [14]: 100%
Postemergence herbicidal activity (% control) XANPE [16]: 100%
Postemergence herbicidal activity (% control) ALOMY [17]: 90%
Postemergence herbicidal activity (% control) SETVI [18]: 100%
Postemergence herbicidal activity (% control) SORHA [19]: 100%

Cn1c(C(F)(F)F)cc(=O)n(-c2c(F)cc(Cl)c3nc(COc4ccccc4)[nH]c23)c1=O [Compound 378]
PREEMERGENCE HERBICIDAL ACTIVITY (% CONTROL) SOY [1]: 90%
PREEMERGENCE HERBICIDAL ACTIVITY (% CONTROL) WHT [2]: 70%
PREEMERGENCE HERBICIDAL ACTIVITY (% CONTROL) CRN [3]: 90%
PREEMERGENCE HERBICIDAL ACTIVITY (% CONTROL) ABUTH [4]: 100%
PREEMERGENCE HERBICIDAL ACTIVITY (% CONTROL) IPOSS [5]: 100%
PREEMERGENCE HERBICIDAL ACTIVITY (% CONTROL) STEME [6]: 100%
PREEMERGENCE HERBICIDAL ACTIVITY (% CONTROL) XANPE [7]: 100%
PREEMERGENCE HERBICIDAL ACTIVITY (% CONTROL) ALOMY [20]: 80%
PREEMERGENCE HERBICIDAL ACTIVITY (% CONTROL) SETVI [8]: 100%
PREEMERGENCE HERBICIDAL ACTIVITY (% CONTROL) SORHA [9]: 95%
Postemergence herbicidal activity (% control) SOY [10]: 90%
Postemergence herbicidal activity (% control) WHT [11]: 40%
Postemergence herbicidal activity (% control) CRN [12]: 90%
Postemergence herbicidal activity (% control) ABUTH [13]: 100%
Postemergence herbicidal activity (% control) IPOSS [14]: 90%
Postemergence herbicidal activity (% control) XANPE [16]: 100%
Postemergence herbicidal activity (% control) ALOMY [17]: 80%
Postemergence herbicidal activity (% control) SETVI [18]: 100%
Postemergence herbicidal activity (% control) SORHA [19]: 100%
